US8722023B2, “Depigmenting or brigthening cosmetic composition comprising at least one oxazolin as an active ingredient” (Laboratoires Expanscience, priority 2005, dated 2014)

Legend:
[1] = tested on: normal human melanocytes in co-culture (NHEM-NHEK; M/K); assay: Production of melanin in M/K co-cultures, irradiated or not; format: cell-based; settings: for quantity of melanin compared to the control (control = 100) / variation of the quantity of melanin compared to the control (value in brackets): 240 hours
Description: (§1) The effect of OX100 was studied on the production of melanin by normal human melanocytes in co-culture (NHEM-NHEK; M/K) irradiated or not. Melanocyte/keratinocyte co-cultures (NHEM-NHEK; M/K) are incubated for 240 hours, in the absence or presence of OX100. The quantity of melanin present in the cells after incubation is measured by spectrophotometry. 1) M/K co-cultures are inoculated in medium free of PMA (phorbol myristate acetate) and are brought to 60-80% confluence for the test. 2) Three identical culture series are prepared in order to measure: • cytotoxicity by a MTT (tetrazolium salt) test and by morphological observation of the cells, • quantity of melanin, • quantity of total proteins (in order to determine the ratio of melanin to total protein). 3) Treatment conditions are as follows: • OX100 at three concentrations: 2×10^−6, 10^−5, 2×10^−5 M. • Kojic acid (reference depigmenting molecule). • IBMX (3-isobutyl-1-methylxanthine, pro-pigmenting reference molecule). Each treatment condition is carried out in triplicate. The co-cultures are incubated for 240 hours in the presence or absence of the compounds above. Irradiation by ultraviolet rays (25 mJ/cm^2 of UVB+300 mJ/cm^2 of UVA) is carried out four times per day for consecutive four days. At the end of the treatment, the cellular monolayers are washed. After cell lysis, the melanin crystals are extracted and solubilized. The melanin is quantified by measurement of the OD (optical density) at 450 nm and by comparison with a range of melanin standards.

[2] = tested on: Melanocyte/keratinocyte co-cultures (NHEM-NHEK; M/K); assay: Viability (MTT test) of M/K co-cultures; format: cell-based, human; settings: for Viability percentage (MTT test): 240 hours
Description: as §1, with “Melanocyte/keratinocyte” for “The effect of OX100 was studied on the production of melanin by normal human melanocytes in co-culture (NHEM-NHEK; M/K) irradiated or not. Melanocyte/keratinocyte”, “days.” for “days. At the end of the treatment, the cellular monolayers are washed. After cell lysis, the melanin crystals are extracted and solubilized. The melanin is quantified by measurement of the OD (optical density) at 450 nm and by comparison with a range of melanin standards.”

[3] = Overall assessment of the product's acceptability and effectiveness by the volunteers; format: in vivo, human (adult female volunteers); set-up: unit not given here; settings: panel of 21 volunteers
Text: Overall Assessment of the Product's Acceptability and Effectiveness by the Volunteers

[4] = tested on: lentigo pigmentation spots, skin of hands and face; assay: Clinical evaluation of hands and face after six weeks of application; format: in vivo, human (adult female volunteers)
Text: Among these volunteers, 14% were North-African in origin and 86% Mediterranean, including 76% of phototype IV and 10% of phototype V. All of these volunteers had lentigo pigmentation spots on the hands and most had them on the face. The results of the statistically significant variation, after six weeks of application, of some of the criteria evaluated are given in table 6 below: The percentages correspond to variations with respect to the initial evaluations, the p value corresponds to probability p with respect to the initial evaluations (Wilcoxon test, bilateral significance test, p<0.05). For measurements of pigmentation spot intensity, the intensity of the spot is identified beforehand. The results of the statistically significant variation, after six weeks of application, of some of the criteria evaluated are given in table 7 below: The percentages correspond to variations with respect to the initial evaluations, the p value corresponds to probability p with respect to the initial evaluations (Wilcoxon test, bilateral significance test, p<0.05). For measurements of pigmentation spot intensity, the intensity of the spot is identified beforehand.

[5] = Assessment of cutaneous acceptability by the volunteers; format: in vivo, human (adult female volunteers); set-up: volunteers reporting no cutaneous manifestations: unit not given here
Text: Assessment of Cutaneous Acceptability by the Volunteers

[6] = tested on: skin of the hands (spot-free area and pre-identified pigmentation spot); assay: Colorimetric measurements (Chromameter) on the hands, treated hand vs. control hand; format: in vivo, human (adult female volunteers); settings: for Individual typological angle (ITA), treated hand / Lightness variable L*, treated hand: mean ± SEM
Text: Among these volunteers, 14% were North-African in origin and 86% Mediterranean, including 76% of phototype IV and 10% of phototype V. All of these volunteers had lentigo pigmentation spots on the hands and most had them on the face. COLORIMETRIC MEASUREMENTS (Chromameter™): Variance homogeneity and distribution normality were verified in all cases. Measurements are taken on the hands, in an area without pigmentation spots. The results correspond to the means and deviations with respect to the mean-SEM. The time and product effects results with values less than 0.05 are statistically significant. The result corresponding to both the time and product effects gives the value of the probability of the differences Δ (T=6 weeks minus T0) by the Student's t-test in a paired series (bilateral significance test, p<0.05). Measurements are carried out on the hands in an area with pigmentation spots. The results correspond to the means and deviations with respect to the mean-SEM.

[7] = area with spots (pre-identified pigmentation spot), T = 0 (before treatment)
[8] = area with spots (pre-identified pigmentation spot), T = 6 weeks
[9] = spot-free area of the hands, T = 0 (before treatment)
[10] = spot-free area of the hands, T = 6 weeks

CC(C)Cn1c(=O)n(C)c(=O)c2[nH]cnc21 [IBMX, 3-isobutyl-1-methylxanthine, reference compound]
quantity of melanin compared to the control (control = 100) ([1]; 200 μM, With UV): 114%
quantity of melanin compared to the control (control = 100) ([1]; 200 μM, Without UV): 118%
variation of the quantity of melanin compared to the control (value in brackets) ([1]; With UV): +14%
variation of the quantity of melanin compared to the control (value in brackets) ([1]; Without UV): +15%
Viability percentage (MTT test) ([2]; 200 μM, With UV): 111%
Viability percentage (MTT test) ([2]; 200 μM, Without UV): 118%

O=c1cc(CO)occ1O [Kojic acid, reference compound]
quantity of melanin compared to the control (control = 100) ([1]; 15.6 μg/ml, With UV): 83%
variation of the quantity of melanin compared to the control (value in brackets) ([1]; 15.6 μg/ml, With UV): −20%
quantity of melanin compared to the control (control = 100) ([1]; 15.6 μg/ml, Without UV): 74%
variation of the quantity of melanin compared to the control (value in brackets) ([1]; 15.6 μg/ml, Without UV): −35%
Viability percentage (MTT test) ([2]; 0.0156 mg/ml, With UV): 99%
Viability percentage (MTT test) ([2]; 0.0156 mg/ml, Without UV): 102%

CCCCCCCCCCCC1=NC(C)(C)CO1 [OX100, 2-undecyl-4,4-dimethyl-1,3-oxazoline]
volunteers reporting somewhat good to good effectiveness as a depigmenting/lightening product [3]: Thirty-eight
COLOR LIGHTNESS, variation with respect to initial evaluation ([4]; face, p = 0.0001 (Wilcoxon)): +22% (p = 0.0001)
INTENSITY OF THE PIGMENTATION SPOT, variation with respect to initial evaluation ([4]; face, p = 0.0196 (Wilcoxon)): −8% (p = 0.0196)
COLOR UNIFORMITY, variation with respect to initial evaluation ([4]; face, p = 0.0455 (Wilcoxon)): +4% (p = 0.0455)
SKIN LIGHTNESS, variation with respect to initial evaluation ([4]; hands, p = 0.0002 (Wilcoxon)): +16% (p = 0.0002)
INTENSITY OF THE PIGMENTATION SPOT, variation with respect to initial evaluation ([4]; hands, p = 0.0143 (Wilcoxon)): −5% (p = 0.0143)
SKIN UNIFORMITY, variation with respect to initial evaluation ([4]; hands, p = 0.0209 (Wilcoxon)): +10% (p = 0.0209)
quantity of melanin compared to the control (control = 100) ([1]; 2 × 10^−5 M, With UV): 104%
variation of the quantity of melanin compared to the control (value in brackets) ([1]; 2 × 10^−5 M, With UV): +4%
quantity of melanin compared to the control (control = 100) ([1]; 2 × 10^−5 M, Without UV): 89%
variation of the quantity of melanin compared to the control (value in brackets) ([1]; 2 × 10^−5 M, Without UV): −12%
quantity of melanin compared to the control (control = 100) ([1]; 2 × 10^−6 M, With UV): 100%
variation of the quantity of melanin compared to the control (value in brackets) ([1]; 2 × 10^−6 M, With UV): 0%
quantity of melanin compared to the control (control = 100) ([1]; 2 × 10^−6 M, Without UV): 102%
variation of the quantity of melanin compared to the control (value in brackets) ([1]; 2 × 10^−6 M, Without UV): −1%
quantity of melanin compared to the control (control = 100) ([1]; 10^−5 M, With UV): 99%
variation of the quantity of melanin compared to the control (value in brackets) ([1]; 10^−5 M, With UV): −1%
quantity of melanin compared to the control (control = 100) ([1]; 10^−5 M, Without UV): 104%
variation of the quantity of melanin compared to the control (value in brackets) ([1]; 10^−5 M, Without UV): +4%
effect on melanin in the irradiated study model, in words ([1]; irradiated co-cultures (UVB + UVA)): neutralizes the effect of ultraviolet rays
inhibition of the synthesis of melanin ([1]; non-irradiated co-cultures, 2.10^−5 M, p<0.01): roughly 12%
dermatological tolerance, conclusion in words ([5]; conclusion of Example 6): dermatologically well-tolerated
volunteers reporting no cutaneous manifestations ([5]; panel of 21 volunteers): Ninety-five
volunteers reporting no ocular manifestations ([5]; panel of 21 volunteers): 100%
Viability percentage (MTT test) ([2]; 2 × 10^−5 M, With UV): 105%
Viability percentage (MTT test) ([2]; 2 × 10^−5 M, Without UV): 115%
Viability percentage (MTT test) ([2]; 2 × 10^−6 M, With UV): 97%
Viability percentage (MTT test) ([2]; 2 × 10^−6 M, Without UV): 102%
Viability percentage (MTT test) ([2]; 10^−5 M, With UV): 99%
Viability percentage (MTT test) ([2]; 10^−5 M, Without UV): 108%
toxicity for the M/K co-cultures, in words ([2]; at the concentrations tested): not toxic
Individual typological angle (ITA), treated hand [6, 7]: 5.0 ± 4.5
Lightness variable L*, treated hand [6, 7]: 51.2 ± 1.1
Individual typological angle (ITA), treated hand [6, 8]: 11.0 ± 5.2
Lightness variable L*, treated hand [6, 8]: 52.4 ± 1.2
increase in chromaticity coordinate L* ([6]; area with spots, six weeks of applications, compared to initial values and control hand, p=0.048): +2%
Individual typological angle (ITA), treated hand [6, 9]: 38.5 ± 2.4
Lightness variable L*, treated hand [6, 9]: 58.4 ± 0.7
Individual typological angle (ITA), treated hand [6, 10]: 44.1 ± 2.4
Lightness variable L*, treated hand [6, 10]: 59.2 ± 0.7
increase in ITA ([6]; spot-free area, six weeks of applications, compared to initial values and control hand, p=0.008): +13%
increase in chromaticity coordinate L* ([6]; spot-free area, six weeks of applications, compared to initial values and control hand, p=0.017): +2%
